The results in this text go back to patent publication US20230060350A1, “BACTERICIDAL COMPOSITION FOR CONTROLLING GUMMY STEM BLIGHT OF MELONS” (Institute of Plant Protection and Agro-products Safety, …, priority 2022, published 2023).

Structures are written as SMILES.

Assay [1] has as its system Stagonosporopsis cucurbitacearum. The assay is described as follows: Indoor toxicity test, hypha growth assay on drug-containing PDA plates. Type of assay: cell-based. As to conditions: hypha growth inhibition, 25° C. The procedure: Embodiment 1 Indoor toxicity test of Pydiflumetofen and the Thifluzamide on Stagonosporopsis cucurbitacearum
Bactericidal properties of the Pydiflumetofen and the Thifluzamide were analyzed in detail. EC50 […] of two single components such as the Pydiflumetofen and the Thifluzamide (hereinafter referred to as agents) was tested first; a combination ratio of the two agents was set by a Wadley method according to the EC50 of the two single agents, and according to a Wadley synergistic coefficient SR value.
A test object was Stagonosporopsis cucurbitacearum of melons, but was not limited herein. […] Hypha growth assay was adopted during the test; drug containing media were prepared according to different treatments; hypha blocks having a diameter of 5 mm were prepared on the edges of the pre-culture colonies by using the sterilized puncher and respectively transferred onto medium plates with different drug content; a colony diameter was tested by a crossing method; the colony diameter (mm) was measured; and a growth inhibition ratio was calculated by the following formula: […]
Interaction of the mixture was evaluated according to the Wadley method; and a calculation formula was as follows: […]
In the formula, a and b were content ratios of various components in the mixture; and a mixing effect was analyzed based on the value SR.

The subject of assay [2] is gummy stem blight of Trichosanthes kirilowii maxim. The assay is described as follows: Field control experiment on gummy stem blight of Trichosanthes kirilowii maxim. It counts as in vivo. The source says:
Embodiment 3: Field Control Experiment of Pydiflumetofen and the Thifluzamide on Gummy Stem Blight of Trichosanthes kirilowii maxim
Control tests of gummy stem blight of Trichosanthes kirilowii maxim were respectively conducted in 2020 and 2021. Test data in 2021 were collected as follows: the 20% Pydiflumetofen·Thifluzamide suspension, 20% Pydiflumetofen suspension, 30% Thifluzamide suspension and 25% Azoxystrobin suspension in embodiment 2 were respectively used in the experiment. The variety of the tested Trichosanthes kirilowii maxim was “Wanlou 9”; the test location was a Trichosanthes kirilowii maxim field in Gangji experimental production base in Anhui Academy of Agricultural Sciences; water consumption per mu was 30 kg; the Trichosanthes kirilowii maxim was subjected to agent control at an early stage of growing and flowering (May 20); and disease condition survey was conducted within 30 days (Table 2).

For assay [3], the system named is gummy stem blight of the watermelon. The assay is described as follows: Greenhouse control experiment on gummy stem blight of watermelon. It counts as in vivo. The source says:
Embodiment 4: Field Control Experiment of Pydiflumetofen and the Thifluzamide on Gummy Stem Blight of Watermelon Control tests of gummy stem blight of watermelons were respectively conducted in 2020 and 2021. Test data in 2021 were collected as follows: the 18% Pydiflumetofen·Thifluzamide water dispersible granules, 20% Pydiflumetofen suspension, 30% Thifluzamide suspension and 25% Azoxystrobin suspension in embodiment 1 were respectively used in the experiment. The variety of the tested watermelon was “Zaojia 8424”; the test location was a watermelon greenhouse in Gangji experimental production base in Anhui Academy of Agricultural Sciences; water consumption per mu was 30 kg; the watermelons were subjected to agent control for the first time within 30 days after field planting of watermelon seedlings, and then subjected to agent control for the second time within 10 days after the first control; and disease condition survey was conducted within 30 days after the second agent control (Table 3).

In the case of `CON(C(=O)c1cn(C)nc1C(F)F)C(C)Cc1c(Cl)cc(Cl)cc1Cl` (racemic) [Pydiflumetofen, 3-(difluoromethyl)-N-methoxy-1-methyl-N-[(RS)-1-methyl-2-(2,4,6-trichlorophenyl)ethyl]pyrazol-4-formamide], in assay [1], the EC50 came to 0.0109 ppm. Besides, the “Control effect (in words)” value in assay [2] and in assay [3] was “significant control effects” in each case.
Take `Cc1nc(C(F)(F)F)c(C(=O)Nc2c(Br)cc(OC(F)(F)F)cc2Br)s1` [Thifluzamide]: the EC50 in assay [1] is 0.0451 ppm. Moreover, the “Control effect (in words)” value in assay [2] and in assay [3] was “significant control effects” each time.
